According to patent publication US10745352B2, “Dual function molecules for histone deacetylase inhibition and ataxia telangiectasia mutated activation and methods of use thereof” (Shuttle Pharmaceuticals, Inc., priority 2015, dated 2020):

Assays:
[1] = test system: ATM; experiment: ATM activation: phospho-ATM (S1981) ELISA on the nuclear fraction of MCF7 cells; assay type: cell-based, Human; details: 1 μM, time course of 6 hours
Procedure: Several assays were utilized to determine the ability of the compounds of the invention to activate ATM over a period of time. […] The fold change in phospho-ATM was measured over a period of time. Accordingly, the increase in phospho-ATM indicates activation of ATM by the compounds of the invention.
In certain examples, the activity of the compounds of the invention was compared to additional modulators of ATM, such as […] (a specific ATM inhibitor); dimethylsulfoxide (DMSO) (a solvent); 3,3′-diindolylmethane (DIM) (an ATM activator); and irradiation (irradiation may result in the generation of phospho-ATM due to DNA damage). DIM was not used as a comparative compound in Example 5.
Materials: MCF7 Cells; Complete RPMI media: RPMI, 10% Fetal Bovine Serum (FBS), 5% L-glutamine, 5% Pen/Strep; R&D Systems Human P-ATM (S1981) DuoSet IC ELISA Assay Kit; Plate sealers; Normal mouse serum (heat inactivated 56 C for 30 min); 96-well ELISA microtiter plate; 450 nm Plate Reader; 60 mm dishes; Disposable pipettes; Pipet-aid; Pipette tips; Micro-pipetter; Cell scraper; Distilled water; Pierce NE-PER Nuclear and Cytoplasmic Extraction Reagent; Pierce Protease and Phosphotase Inhibitor Mini Tablets; KU-55933; DIM (not used in Example 5); Dimethyl sulfoxide (DMSO); Phosphate buffered saline (PBS); and Sterile micro-tubes and conical tubes; Hemocytometer; Microscope; Micro-centrifuge.
MCF7 Cells were grown in Complete RPMI media and 10^6 cells were seeded into 60 mm dishes. Dishes were then divided into duplicate treatments the following day. Control samples were treated with 3 ml RPMI media for 1 hr. Vehicle samples were treated with 3 ml RPMI media plus 0.1% DMSO for 1 hr. Negative control samples were treated with 10 μM KU-55933 in 3 ml RPMI media plus 0.1% DMSO for 1 Hr. Positive control samples were treated with 0.5 μM DIM in 3 ml RPMI media plus 0.1% DMSO for 30 min. Test Samples were treated with 1 μM of the test compounds (e.g. N-(6-(hydroxyamino)-6-oxohexyl)-1H-indole-2-carboxamide in Example 5) in 3 ml RPMI media plus 0.1% DMSO for 30 min; 1 hr; 2 hrs; 4 hrs; and 6 hrs. At their designated time, samples were harvested on ice using a cell scraper and two washes of 1 ml PBS and kept as a cell pellet on dry ice until all were collected. After all samples were collected they were thawed on ice and separated into cytosolic and nuclear fractions using the Pierce NE-PER Nuclear and Cytoplasmic Extraction Reagent kit with added Pierce protease and phosphotase inhibitor tablet.
After recovery of the separate fractions, the process further included washing cells by suspending the cell pellet with PBS. 1-10×10^6 cells were transferred to a 1.5 mL microcentrifuge tube and a pellet was formed by centrifugation at 500×g for 2-3 minutes. […]

[2] = test system: pan-HDACs; experiment: Pan-HDAC assay (Fluor-de-Lys fluorometric kit, HeLa Nuclear Extract); assay type: biochemical; details: values are average EC50, read-out: EC50 against pan-HDACs
Procedure: Certain compounds of the invention were tested in a pan-HDAC assay to determine the ability of such compounds to inhibit HDAC protein. Specifically, the compounds tested included: N-(6-(hydroxyamino)-6-oxohexyl)-3-methyl-1H-indole-2-carboxamide (SP-1-161) (FIG. 8A); N^1-hydroxy-N^6-(2-(2-methyl-1H-indol-3-yl)ethyl)octanediamide (SP-1-163) (FIG. 8A); (S)—N-(6-(hydroxyamino)-6-oxohexyl)-1-tosylindoline-2-carboxamide (SP-1-169) (FIG. 8B); and (S)-1-((5-(dimethylamino)naphthalene-1-yl)sulfonyl)-N-(6-(hydroxyamino)-6-oxoheyl)indoline-carboxamide (SP-1-171) (FIG. 8B).
The Pan HDAC assay was performed as follows:
Materials: Enzo Fluor-de-Lys HDAC fluorometric activity assay kit; 360 nm excitation 460 nm emission Plate Reader; Disposable pipettes; Pipet-aid; Pipette tips; Micro-pipetter; DMSO; Sterile micro-tubes and conical tubes; and Micro-centrifuge.
Test compounds and control preparation: All test compounds' stock solutions were made in 100% DMSO. Test compound dilutions were made in HDAC Assay buffer with a final concentration of DMSO less than or equal to 1%. Vehicle control was HDAC Assay buffer with 1% DMSO.
The reagents for the assay were prepared as follows:
1. All kit components were defrosted and these, and all dilutions described below, were kept on ice until use. All undiluted kit components are stable for several hours on ice.
2. A sufficient amount of HeLa Nuclear Extract (BML-KI140) or other HDAC source diluted in Assay Buffer (BML-KI143) was prepared to provide for the assays that were performed (# of wells×15 μl). A 30-fold dilution of the HeLa Extract means that 15 μl contains 0.5 μl of the undiluted Extract, an appropriate amount to use per well.
3. Dilution(s) of Trichostatin A and/or Test Inhibitors were prepared in Assay Buffer (BML-KI143). Since 10 μl were used per well, and since the final volume of the HDAC reaction was 50 μl, these inhibitor dilutions were 5× their final concentration.
4. Dilution(s) of the Fluor de Lys® Substrate (BML-KI104; 50 mM) were prepared in Assay Buffer (BML-KI143) that were 2× the desired final concentration(s). For inhibitor screening, substrate concentrations at or below the Km are recommended. Twenty-five μL were used per well. Initial dilutions of 25-fold or greater in Assay Buffer (2.0 mM or less) yielded stable solutions (see NOTE on freezing and thawing below). Rapid mixing and dilution into room temperature buffer helped to prevent precipitation at high substrate concentration. NOTE: Freezing/thawing of Fluor de Lys® Substrate solutions in Assay Buffer may cause precipitation of the Substrate. Dilute only amount necessary for one day's experiment.
5. Shortly before use (<30 min.), sufficient Fluor de Lys® Developer was prepared for the assays to be performed (50 μl per well). […]

EC50 [2] [nM] | SMILES | ATM activation (level of ATM phosphorylation, phospho-ATM) [1] | ATM activation (level of ATM phosphorylation, phospho-ATM) ([1]; listed as 2,3-dimethylindole)
112 | Cc1[nH]c2ccccc2c1CCNC(=O)CCCCCCC(=O)NO [SP-1-163, N^1-hydroxy-N^6-(2-(2-methyl-1H-indol-3-yl)ethyl)octanediamide] | exemplary ATM activation activity | 
265 | Cc1ccc(S(=O)(=O)N2c3ccccc3C[C@H]2C(=O)NCCCCCC(=O)NO)cc1 [SP-1-169, (S)—N-(6-(hydroxyamino)-6-oxohexyl)-1-tosylindoline-2-carboxamide] |  | 
25.3 | CN(C)c1cccc2c(S(=O)(=O)N3c4ccccc4C[C@H]3C(=O)NCCCCCC(=O)NO)cccc12 [SP-1-171, (S)-1-((5-(dimethylamino)naphthalene-1-yl)sulfonyl)-N-(6-(hydroxyamino)-6-oxoheyl)indoline-carboxamide] |  | 
 | Cc1[nH]c2ccccc2c1C [2,3-dimethyl indole, reference compound] | significant increase in ATM phosphorylation | significant increase in ATM activation
